Measured values as given in ChEMBL document CHEMBL6096666, “Design, synthesis and biological evaluation of alginate oligosaccharide derivatives” (Bioorg Med Chem Lett, 2025).
Calls of active or inactive are those of the source. The calls are words filed in the database; no cut-off is given here.

Columns and labels:
HK-2 [1] = experiment: Anti-inflammatory activity against H/R induced damage in human HK-2 cells assessed as inhibition of TLR4 protein expression pretreated with compound followed by hypoxic reoxygenation induction; assay type: functional, cell-based
HK-2 [2] = experiment: Anti-inflammatory activity against H/R induced damage in human HK-2 cells assessed as inhibition of p-NFkappaB protein expression pretreated with compound followed by hypoxic reoxygenation induction; assay type: functional, cell-based
HK-2 [3] = experiment: Anti-inflammatory activity against H/R induced damage in human HK-2 cells assessed as inhibition of MyD88 protein expression pretreated with compound followed by hypoxic reoxygenation induction; assay type: functional, cell-based
HK-2 [4] = experiment: Anti-inflammatory activity against H/R induced damage in human HK-2 cells assessed as inhibition of IL-1beta protein expression pretreated with compound followed by hypoxic reoxygenation induction; assay type: functional, cell-based
Rattus norvegicus = species: Rattus norvegicus; experiment: Protection against kidney ischemia-reperfusion injury in rat model assessed as decrease in blood creatinine level; assay type: functional, organism-based

Compound	Activity (HK-2 [1])	Activity (HK-2 [2])	Activity (HK-2 [3])	Activity (HK-2 [4])	Activity (Rattus norvegicus)
O=C(O)[C@@H]1C[C@@H](O)[C@@H](O)[C@H](O[C@@H]2[C@@H](O)[C@@H](O)[C@H](O[C@H]([C@@H](O)[C@@H](O)C(=O)O)[C@H](O)C(=O)O)O[C@@H]2C(=O)O)O1	Active	Active	Active	Active	
O=C(O)[C@@H]1C[C@@H](O)[C@@H](O)[C@H](O[C@@H]2[C@@H](O)[C@@H](O)[C@H](O[C@@H]3[C@@H](O)[C@@H](O)[C@H](O[C@@H]4[C@@H](O)[C@@H](O)[C@@H](O)O[C@@H]4C(=O)O)O[C@@H]3C(=O)O)O[C@@H]2C(=O)O)O1	Active				
O=C(O)[C@@H]1C[C@@H](O)[C@@H](O)[C@H](O[C@@H]2[C@@H](O)[C@@H](O)[C@@H](O)O[C@@H]2C(=O)O)O1	Active				Active
O=C(O)[C@@H]1C[C@@H](O)[C@@H](O)[C@H](O[C@@H]2[C@@H](O)[C@@H](O)[C@H](O[C@@H]3[C@@H](O)[C@@H](O)[C@@H](O)O[C@@H]3C(=O)O)O[C@@H]2C(=O)O)O1				Active	Active
